For this assay, the target named is human FXR (NR1H4) (Homo sapiens (Human), UniProt Q96RI1). Kind of assay: Human FXR (NR1H4) Assay (Gal4 promoter driven luciferase reporter, Indigo Bioscience kit).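 As to Efficacy (%): 100% equals the efficacy of CDCA; efficacy normalized to CDCA set as 100%.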 Type of assay: cell-based. Particulars: for pEC50: Human FXR (NR1H4) Assay, potency ranges; for Emax: read-out: Efficacy (%). In outline: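 CHO reporter cells expressing human FXR with an FXR-responsive luciferase reporter, treated with compound doses at 0.2% DMSO. Incubation lasted 22 h at 37 °C before luciferase detection reagent was added. Luminescence was then read.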

Among the data in US10457703B2, “Bile acid derivatives as FXR/TGR5 agonists and methods of use thereof” (ENANTA PHARMACEUTICALS, INC., priority 2015, dated 2019) are EC50 and Emax values, retold here.

The term pEC50 denotes the EC50 on a negative log10 scale, so that one unit is a factor of ten.

Each structure is given as a SMILES string. pEC50: −log10 of the molar value.

Sequence of human FXR (NR1H4) (Q96RI1 whole entry, the tested form may be a part): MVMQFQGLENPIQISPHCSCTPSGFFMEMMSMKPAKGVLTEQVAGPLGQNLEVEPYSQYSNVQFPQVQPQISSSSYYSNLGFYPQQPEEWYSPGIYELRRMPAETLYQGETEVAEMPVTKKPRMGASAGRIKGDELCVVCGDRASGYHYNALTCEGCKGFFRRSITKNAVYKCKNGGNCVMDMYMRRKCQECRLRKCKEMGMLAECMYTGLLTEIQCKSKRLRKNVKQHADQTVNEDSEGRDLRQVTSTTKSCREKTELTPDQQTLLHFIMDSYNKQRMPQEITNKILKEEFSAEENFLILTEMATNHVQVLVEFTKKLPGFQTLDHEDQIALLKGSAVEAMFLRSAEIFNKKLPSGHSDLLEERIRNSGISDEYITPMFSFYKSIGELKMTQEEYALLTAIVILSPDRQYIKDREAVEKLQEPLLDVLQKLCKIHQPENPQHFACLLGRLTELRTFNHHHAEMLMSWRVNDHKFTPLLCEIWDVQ

As to `CC[C@H]1[C@@H](O)[C@@H]2[C@H](CC[C@]3(C)[C@@H]([C@H](C)CCOC(=O)N[C@H]4CC[C@H](O)CC4)CC[C@@H]23)[C@@]2(C)CC[C@@H](O)C[C@@H]12` [Example 185], the pEC50 is 6.00 to 7.00 and the Emax came out at 392%.

Turning to `CC[C@H]1[C@@H](O)[C@@H]2[C@H](CC[C@]3(C)[C@@H]([C@H](C)CCOC(=O)NCCc4ccccn4)CC[C@@H]23)[C@@]2(C)CC[C@@H](O)C[C@@H]12` [Example 186], the pEC50 was 6.00 to 7.00 and the Emax was 373%.

For the molecule `CC[C@H]1[C@@H](O)[C@@H]2[C@H](CC[C@]3(C)[C@@H]([C@H](C)CCOC(=O)NCCCC(=O)OC)CC[C@@H]23)[C@@]2(C)CC[C@@H](O)C[C@@H]12` [Example 187], the pEC50 is 6.00 to 7.00 and the Emax is 421%.

For `CC[C@H]1[C@@H](O)[C@@H]2[C@H](CC[C@]3(C)[C@@H]([C@H](C)CCOC(=O)NCC4CCCCC4)CC[C@@H]23)[C@@]2(C)CC[C@@H](O)C[C@@H]12` [Example 188], the pEC50 is 6.00 to 7.00 and the Emax was 459%.

Regarding `CC[C@H]1[C@@H](O)[C@@H]2[C@H](CC[C@]3(C)[C@@H]([C@H](C)CCOC(=O)NCc4ccc(C(C)(C)C)cc4)CC[C@@H]23)[C@@]2(C)CC[C@@H](O)C[C@@H]12` [Example 189], the pEC50 was 5.00 to 6.00 and the Emax was determined as 215%.

For `CC[C@H]1[C@@H](O)[C@@H]2[C@H](CC[C@]3(C)[C@@H]([C@H](C)CCOC(=O)NCC(C)(C)C)CC[C@@H]23)[C@@]2(C)CC[C@@H](O)C[C@@H]12` [Example 190], the pEC50 was 6.00 to 7.00 and the Emax is 410%.

As for `CC[C@H]1[C@@H](O)[C@@H]2[C@H](CC[C@]3(C)[C@@H]([C@H](C)CCOC(=O)Nc4ccccc4)CC[C@@H]23)[C@@]2(C)CC[C@@H](O)C[C@@H]12` [Example 191], the pEC50 was 5.00 to 6.00 and the Emax is 330%.

Regarding `CC[C@H]1[C@@H](O)[C@@H]2[C@H](CC[C@]3(C)[C@@H]([C@H](C)CCOC(=O)NC(C)(C)C)CC[C@@H]23)[C@@]2(C)CC[C@@H](O)C[C@@H]12` [Example 192], the pEC50 is 5.00 to 6.00 and the Emax turned out to be 186%.

For the molecule `CC[C@H]1[C@@H](O)[C@@H]2[C@H](CC[C@]3(C)[C@@H]([C@H](C)CCOC(=O)Nc4ccc(F)cc4Cl)CC[C@@H]23)[C@@]2(C)CC[C@@H](O)C[C@@H]12` [Example 193], the pEC50 is 5.00 to 6.00 and the Emax came to 179%.

Take `CC[C@H]1[C@@H](O)[C@@H]2[C@H](CC[C@]3(C)[C@@H]([C@H](C)CCOC(=O)Nc4cncc(Cl)c4)CC[C@@H]23)[C@@]2(C)CC[C@@H](O)C[C@@H]12` [Example 194]: the pEC50 is 5.00 to 6.00 and the Emax came out at 170%.

For `CC[C@H]1[C@@H](O)[C@@H]2[C@H](CC[C@]3(C)[C@@H]([C@H](C)CCOC(=O)NC4CCCC4O)CC[C@@H]23)[C@@]2(C)CC[C@@H](O)C[C@@H]12` (stereo partly drawn) [Example 195], the pEC50 was above 7.00 and the Emax worked out at 288%.

Take `CC[C@H]1[C@@H](O)[C@@H]2[C@H](CC[C@]3(C)[C@@H]([C@H](C)CCOC(=O)Nc4ccc5ccccc5c4)CC[C@@H]23)[C@@]2(C)CC[C@@H](O)C[C@@H]12` [Example 197]: the pEC50 is 5.00 to 6.00 and the Emax was determined as 101%.

For the molecule `CC[C@H]1[C@@H](O)[C@@H]2[C@H](CC[C@]3(C)[C@@H]([C@H](C)COC(=O)NC4CC4)CC[C@@H]23)[C@@]2(C)CC[C@@H](O)C[C@@H]12` [Example 198], the negative-log EC50 (pEC50) was 5.00 to 6.00 and the Emax was 139%.

As for `CC[C@H]1[C@@H](O)[C@@H]2[C@H](CC[C@]3(C)[C@@H]([C@H](C)COC(=O)NC4CCCCC4)CC[C@@H]23)[C@@]2(C)CC[C@@H](O)C[C@@H]12` [Example 199], the pEC50 is 5.00 to 6.00 and the Emax worked out at 14%.

Consider `CC[C@H]1[C@@H](O)[C@@H]2[C@H](CC[C@]3(C)[C@@H]([C@H](C)COC(=O)N4CCC4)CC[C@@H]23)[C@@]2(C)CC[C@@H](O)C[C@@H]12` [Example 200], for which the pEC50 was 5.00 to 6.00 and the Emax was 7%.

As for `CC[C@H]1[C@@H](O)[C@@H]2[C@H](CC[C@]3(C)[C@@H]([C@H](C)COC(=O)N4CCCCC4)CC[C@@H]23)[C@@]2(C)CC[C@@H](O)C[C@@H]12` [Example 201], the negative-log EC50 (pEC50) is 6.00 to 7.00 and the Emax came to 1%.

On to `CC[C@H]1[C@@H](O)[C@@H]2[C@H](CC[C@]3(C)[C@@H]([C@H](C)CCOC(=O)N4CCC(CO)CC4)CC[C@@H]23)[C@@]2(C)CC[C@@H](O)C[C@@H]12` [Example 202], for which the pEC50 was 6.00 to 7.00 and the Emax is 393%.

Regarding `CC[C@H]1[C@@H](O)[C@@H]2[C@H](CC[C@]3(C)[C@@H]([C@H](C)CCOC(=O)N4CCC[C@H](CO)C4)CC[C@@H]23)[C@@]2(C)CC[C@@H](O)C[C@@H]12` [Example 203], the pEC50 is 6.00 to 7.00 and the Emax was 380%.

Turning to `CC[C@H]1[C@@H](O)[C@@H]2[C@H](CC[C@]3(C)[C@@H]([C@H](C)CCOC(=O)N4CCC[C@@H](CO)C4)CC[C@@H]23)[C@@]2(C)CC[C@@H](O)C[C@@H]12` [Example 204], the pEC50 is above 7.00 and the Emax is 310%.

For `CC[C@H]1[C@@H](O)[C@@H]2[C@H](CC[C@]3(C)[C@@H]([C@H](C)COC(=O)NCc4ccccc4)CC[C@@H]23)[C@@]2(C)CC[C@@H](O)C[C@@H]12` [Example 205], the negative-log EC50 (pEC50) was 5.00 to 6.00 and the Emax was 5%.

For the molecule `CC[C@H]1[C@@H](O)[C@@H]2[C@H](CC[C@]3(C)[C@@H]([C@H](C)CCOC(=O)N[C@@H]4CCC[C@@H]4O)CC[C@@H]23)[C@@]2(C)CC[C@@H](O)C[C@@H]12` [Example 206], the pEC50 is above 7.00 and the Emax is 174%.

For the molecule `CC[C@H]1[C@@H](O)[C@@H]2[C@H](CC[C@]3(C)[C@@H]([C@H](C)CCOC(=O)N[C@@H]4CCC[C@H]4O)CC[C@@H]23)[C@@]2(C)CC[C@@H](O)C[C@@H]12` [Example 207], the pEC50 was 6.00 to 7.00 and the Emax worked out at 188%.

Regarding `CC[C@H]1[C@@H](O)[C@@H]2[C@H](CC[C@]3(C)[C@@H]([C@H](C)CCOC(=O)N[C@H]4CCC[C@@H]4O)CC[C@@H]23)[C@@]2(C)CC[C@@H](O)C[C@@H]12` [Example 208], the pEC50 is 6.00 to 7.00 and the Emax was 205%.

As for `CC[C@H]1[C@@H](O)[C@@H]2[C@H](CC[C@]3(C)[C@@H]([C@H](C)CCOC(=O)N4CCC[C@@H]4CO)CC[C@@H]23)[C@@]2(C)CC[C@@H](O)C[C@@H]12` [Example 209], the pEC50 was above 7.00 and the Emax amounted to 199%.

`CC[C@H]1[C@@H](O)[C@@H]2[C@H](CC[C@]3(C)[C@@H]([C@H](C)CCOC(=O)N4CCC[C@H]4CO)CC[C@@H]23)[C@@]2(C)CC[C@@H](O)C[C@@H]12` [Example 210]: the pEC50 was above 7.00 and the Emax came out at 156%.

As to `CC[C@H]1[C@@H](O)[C@@H]2[C@H](CC[C@]3(C)[C@@H]([C@H](C)CCOC(=O)N4CC[C@H](CO)C4)CC[C@@H]23)[C@@]2(C)CC[C@@H](O)C[C@@H]12` [Example 211], the pEC50 was above 7.00 and the Emax amounted to 198%.

Consider `CC[C@H]1[C@@H](O)[C@@H]2[C@H](CC[C@]3(C)[C@@H]([C@H](C)CCOC(=O)N4CC[C@@H](CO)C4)CC[C@@H]23)[C@@]2(C)CC[C@@H](O)C[C@@H]12` [Example 212], for which the negative logarithm of the EC50 (pEC50) was above 7.00 and the Emax was 479%.

Regarding `CC[C@H]1[C@@H](O)[C@@H]2[C@H](CC[C@]3(C)[C@@H]([C@H](C)CCOC(=O)N4CCC(C)(CO)CC4)CC[C@@H]23)[C@@]2(C)CC[C@@H](O)C[C@@H]12` [Example 213], the pEC50 is above 7.00 and the Emax is 460%.

As for `CC[C@H]1[C@@H](O)[C@@H]2[C@H](CC[C@]3(C)[C@@H]([C@H](C)CCOC(=O)N4CC(CO)C4)CC[C@@H]23)[C@@]2(C)CC[C@@H](O)C[C@@H]12` [Example 214], the negative logarithm of the EC50 (pEC50) was above 7.00 and the Emax was 194%.

`CC[C@H]1[C@@H](O)[C@@H]2[C@H](CC[C@]3(C)[C@@H]([C@H](C)CCOC(=O)N4CC[C@@H](O)C4)CC[C@@H]23)[C@@]2(C)CC[C@@H](O)C[C@@H]12` [Example 215]: the pEC50 was above 7.00 and the Emax turned out to be 143%.

In the case of `CC[C@H]1[C@@H](O)[C@@H]2[C@H](CC[C@]3(C)[C@@H]([C@H](C)CCOC(=O)N[C@H]4CCC[C@H]4O)CC[C@@H]23)[C@@]2(C)CC[C@@H](O)C[C@@H]12` [Example 216], the pEC50 is 6.00 to 7.00 and the Emax was found to be 478%.

As for `CC[C@H]1[C@@H](O)[C@@H]2[C@H](CC[C@]3(C)[C@@H]([C@H](C)CCOC(=O)N4CCC(CC)(CO)CC4)CC[C@@H]23)[C@@]2(C)CC[C@@H](O)C[C@@H]12` [Example 217], the pEC50 was above 7.00 and the Emax is 337%.

Take `CC[C@H]1[C@@H](O)[C@@H]2[C@H](CC[C@]3(C)[C@@H]([C@H](C)CCOC(=O)N4CCC(CO)(CO)CC4)CC[C@@H]23)[C@@]2(C)CC[C@@H](O)C[C@@H]12` [Example 218]: the pEC50 is above 7.00 and the Emax came out at 356%.
